{"source": "patent US20240238426A1", "about": "“PROTEIN ACYLATION MODULATION BY HETEROBIFUNCTIONAL MOLECULES” (THE SCRIPPS RESEARCH INSTITUTE, priority 2021, published 2024)", "key": {"H3.3-FKBP12^F36V [1]": {"biological_target": "T1, H3.3-FKBP12^F36V (Homo sapiens, UniProt P62942+Q09472, F37V)", "T1 construct": "expressed in transfected cells", "T1 sequence (P62942 2-108 F37V limits assumed)": "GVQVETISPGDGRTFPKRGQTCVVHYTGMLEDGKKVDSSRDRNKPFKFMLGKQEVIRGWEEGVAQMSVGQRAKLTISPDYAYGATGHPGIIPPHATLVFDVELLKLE", "T1 sequence (Q09472 2-2414 limits assumed, stated change not applied)": "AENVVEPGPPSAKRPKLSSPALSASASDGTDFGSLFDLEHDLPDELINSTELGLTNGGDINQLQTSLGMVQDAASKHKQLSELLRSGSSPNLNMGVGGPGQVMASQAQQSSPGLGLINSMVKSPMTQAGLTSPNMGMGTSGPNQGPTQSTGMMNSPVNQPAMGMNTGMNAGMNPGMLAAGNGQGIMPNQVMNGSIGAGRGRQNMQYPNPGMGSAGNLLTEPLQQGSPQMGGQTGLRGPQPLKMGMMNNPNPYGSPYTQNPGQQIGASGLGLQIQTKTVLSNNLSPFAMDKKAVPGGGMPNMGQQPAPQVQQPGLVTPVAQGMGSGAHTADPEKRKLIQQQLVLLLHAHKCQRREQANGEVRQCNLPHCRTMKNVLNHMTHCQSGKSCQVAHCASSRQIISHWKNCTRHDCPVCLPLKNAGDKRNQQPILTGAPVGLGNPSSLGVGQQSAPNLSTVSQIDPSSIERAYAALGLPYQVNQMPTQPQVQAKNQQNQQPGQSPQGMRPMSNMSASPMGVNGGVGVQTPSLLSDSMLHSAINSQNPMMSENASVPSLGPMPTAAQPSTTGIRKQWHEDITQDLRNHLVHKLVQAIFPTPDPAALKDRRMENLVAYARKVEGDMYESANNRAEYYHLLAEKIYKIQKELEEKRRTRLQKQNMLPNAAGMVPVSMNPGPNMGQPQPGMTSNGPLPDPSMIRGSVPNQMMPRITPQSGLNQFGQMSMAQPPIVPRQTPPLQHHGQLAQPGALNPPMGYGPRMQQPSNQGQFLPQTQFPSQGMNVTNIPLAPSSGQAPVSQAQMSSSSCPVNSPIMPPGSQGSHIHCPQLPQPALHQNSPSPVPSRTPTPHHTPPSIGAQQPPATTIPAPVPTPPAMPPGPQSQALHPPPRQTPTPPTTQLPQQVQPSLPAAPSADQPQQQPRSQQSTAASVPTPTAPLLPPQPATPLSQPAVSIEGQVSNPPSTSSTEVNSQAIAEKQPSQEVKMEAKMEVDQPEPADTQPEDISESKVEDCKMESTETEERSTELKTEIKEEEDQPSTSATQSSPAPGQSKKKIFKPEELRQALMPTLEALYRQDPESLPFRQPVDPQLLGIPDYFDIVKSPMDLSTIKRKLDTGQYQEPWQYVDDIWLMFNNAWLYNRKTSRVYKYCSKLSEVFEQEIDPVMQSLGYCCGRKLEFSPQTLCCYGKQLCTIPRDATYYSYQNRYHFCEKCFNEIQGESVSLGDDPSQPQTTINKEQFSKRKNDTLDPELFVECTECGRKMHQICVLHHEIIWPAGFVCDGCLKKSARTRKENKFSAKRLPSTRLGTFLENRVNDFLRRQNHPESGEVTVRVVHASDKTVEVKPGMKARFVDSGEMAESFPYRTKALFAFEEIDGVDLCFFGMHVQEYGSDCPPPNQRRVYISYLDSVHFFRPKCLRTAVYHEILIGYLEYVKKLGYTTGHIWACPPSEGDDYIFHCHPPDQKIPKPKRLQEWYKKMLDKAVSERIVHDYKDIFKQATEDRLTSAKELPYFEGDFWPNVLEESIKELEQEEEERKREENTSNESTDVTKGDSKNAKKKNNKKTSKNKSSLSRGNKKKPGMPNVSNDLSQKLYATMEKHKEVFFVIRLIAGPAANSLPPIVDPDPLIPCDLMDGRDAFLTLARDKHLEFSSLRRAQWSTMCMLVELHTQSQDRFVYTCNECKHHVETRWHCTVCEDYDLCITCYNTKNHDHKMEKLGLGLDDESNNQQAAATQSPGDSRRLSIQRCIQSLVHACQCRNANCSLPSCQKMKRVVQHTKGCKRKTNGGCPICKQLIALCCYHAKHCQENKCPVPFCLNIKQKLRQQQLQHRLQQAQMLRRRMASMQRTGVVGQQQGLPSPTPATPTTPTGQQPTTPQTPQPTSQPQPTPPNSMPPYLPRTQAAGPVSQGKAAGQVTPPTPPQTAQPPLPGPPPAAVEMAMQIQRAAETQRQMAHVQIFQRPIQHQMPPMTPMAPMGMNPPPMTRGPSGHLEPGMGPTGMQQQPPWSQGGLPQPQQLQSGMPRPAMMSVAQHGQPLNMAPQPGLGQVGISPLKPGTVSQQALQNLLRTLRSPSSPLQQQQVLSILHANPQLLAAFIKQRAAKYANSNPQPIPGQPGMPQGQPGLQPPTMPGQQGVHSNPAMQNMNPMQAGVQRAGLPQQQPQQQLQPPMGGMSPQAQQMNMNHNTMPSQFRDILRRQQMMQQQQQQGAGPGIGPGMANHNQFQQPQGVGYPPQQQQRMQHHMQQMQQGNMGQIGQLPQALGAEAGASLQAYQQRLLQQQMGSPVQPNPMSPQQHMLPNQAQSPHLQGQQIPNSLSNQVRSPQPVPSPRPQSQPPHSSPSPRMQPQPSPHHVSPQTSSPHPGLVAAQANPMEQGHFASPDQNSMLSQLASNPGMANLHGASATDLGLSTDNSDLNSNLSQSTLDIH", "experiment": "Quantitative proteomic (TMT MS) analysis of H3.3 acetylation", "type": "cell-based", "settings": "625 nM AceTAG-1 vs DMSO, FIG. 5A", "protocol": "Sample preparation: Cells were split in 10 cm dishes in indicated media. The probes were added once the cells grew to 60%-70% confluency and incubated for indicated time. The cells were harvested and washed with cold DPBS twice. The pelleted cells were lysed in 1 mL lysis buffer, containing 10 mM Tris pH 7.5, 300 mM NaCl, 0.1% (v/v) NP40, 5 mM sodium butyrate, 20 mM Nicotinamide, and 1X Halt Protease Inhibitor, followed by centrifuging for 5 min at 1,000 g at 4° C. The pellets were resuspended in benzonase buffer, containing 50 mM Tris pH 7.5, 300 mM NaCl, 0.5% NP40, and 2.5 mM MgCl2. Protein concentration was normalized by DC Protein Assay (Bio-Rad) and equal amount of protein was subjected to 50 U/100 ml benzonase nuclease (Millipore Sigma) treatment.\nSamples with benzonase were incubated on ice for 30 min and centrifuged at 300 g for 3 min at 4° C. to obtain soluble chromatin fraction. Samples were diluted with dilution buffer, containing 50 mM Tris pH 7.5, 300 mM NaCl, 0.5% NP40, and 15 mM EDTA to quench the benzonase activity. Protein concentration was normalized again by DC Protein Assay (Bio-Rad) and equal amount of protein was used for HA-tag protein enrichment as described above. The beads were washed with lysis buffer and DPBS and incubated with 8 M urea and boiled in 4X SDS gel loading buffer at 95° C. for 15 min. […]"}, "H3.3-FKBP12^F36V [2]": {"biological_target": "T1, H3.3-FKBP12^F36V", "experiment": "Immunoblot analysis of H3.3-FKBP12^F36V acetylation in HeLa cells", "type": "cell-based", "protocol": "Lentivirus Production and Transduction: Lentiviral production was performed using HEK293T cells, which were co-transfected with pMD2.G (Addgene, #12259), psPAX2 (Addgene, #12260), and AceTAG lentiviral plasmids using PEI (Polysciences Inc). Viral particles were collected 72 h after transfection and filtered through a […] membrane. A range of dilutions of the lentivirus in DMEM complete and 10 μg/mL polybrene were added to HeLa, H1299, or HeLa RelA KO cell lines. Transduced cells were selected with 1 μg/mL or 2 μg/mL puromycin.\nImmunoblotting: Cells were harvested in cold DPBS by scraping and washed with cold DPBS twice. Cell pellets were resuspended in DPBS supplemented with 5 mM sodium butyrate, 20 mM Nicotinamide, and 1X Halt Protease Inhibitor Cocktail and lysed by sonication (15 ms on, 40 ms off, 15% amplitude, 1s total on x 3). Protein concentration was determined using DC Protein Assay (Bio-Rad) and absorbance read using a CLARIOstar plate reader following manufacturer's instructions. Samples with equal protein content were boiled in 4X SDS gel loading buffer for 10 min. Proteins were separated by 10%, 12.5%, or 15% SDS-polyacrylamide gel electrophoresis and transferred to PVDF membranes using Trans-Blot Turbo RTA Mini […] LF PVDF Transfer Kit (Bio-Rad). Membranes were incubated for 1 h at room temperature with blocking buffer, followed by incubating overnight at 4° C. with primary antibodies. After washing in TBST, the secondary antibodies were incubated with the membranes at room temperature for 1 h. The membranes were washed with TBST for three times and visualized on a Bio-Rad ChemiDoc MP Imaging System with Clarity Max Western ECL substrate (Bio-Rad) or SuperSignal West Femto Chemiluminescent substrate proprietary luminol and peroxide solution kit (Thermo Scientific Pierce)."}}, "data": [{"smiles": "CC[C@H](C(=O)N1CCCC[C@H]1C(=O)O[C@H](CCc1ccc(OC)c(OC)c1)c1cccc(OCC(=O)NCCOCCOCCC(=O)NCCOc2ccc(CCc3nc4cc(-c5c(C)noc5C)ccc4n3CCN3CCOCC3)cc2)c1)c1cc(OC)c(OC)c(OC)c1", "note": "[AceTAG-1, (R)-3-(3,4-dimethoxyphenyl)-1-(3-((15-(4-(2-(5-(3,5-dimethylisoxazol-4-yl)-1-(2-morpholinoethyl)-1H-benzo[d]imidazol-2-yl)ethyl)phenoxy)-2,12-dioxo-6,9-dioxa-3,13-diazapentadecyl)oxy)phenyl)propyl (S)-1-((S)-2-(3,4,5-trimethoxyphenyl)butanoyl)piperidine-2-carboxylate]", "values": [{"measurement": "acetylation at K18, K23, and K27 by quantitative MS", "setting": "H3.3-FKBP12^F36V [1]", "value": "substantial increases"}, {"measurement": "acetylation at other identified lysines on H3.3 by quantitative MS", "setting": "H3.3-FKBP12^F36V [1]", "value": "no acetylation"}, {"measurement": "treatment time after which H3.3-FKBP12^F36V acetylation significantly increased", "setting": "H3.3-FKBP12^F36V [2]; 625 nM AceTAG-1, FIG. 4E", "value": 5, "unit": "min"}, {"measurement": "acetylation level at high concentration (hook effect)", "setting": "H3.3-FKBP12^F36V [2]; 50 μM AceTAG-1", "value": "loss of acetylation level"}, {"measurement": "K18 acetylation, comparison of analogs", "setting": "H3.3-FKBP12^F36V [2]; FIG. 9B", "value": "modestly higher levels of acetylation relative to the other analogs"}, {"measurement": "acetylation of H3.3", "setting": "H3.3-FKBP12^F36V [2]; HeLa cells, FIG. 8", "value": "significant acetylation of H3.3"}, {"measurement": "H3.3 acetylation at lysine 18, 23, and 27", "setting": "H3.3-FKBP12^F36V [2]; increasing concentrations, 2 hr, FIG. 4B", "value": "dose-dependent increase"}, {"measurement": "H3.3 acetylation at lysine 9, 14, or 79", "setting": "H3.3-FKBP12^F36V [2]; increasing concentrations, 2 hr, FIG. 4C", "value": "not lysine 9, 14, or 79"}, {"measurement": "time for H3.3 K18 acetylation to reach near basal levels after compound removal", "setting": "H3.3-FKBP12^F36V [2]; washout, FIG. 4F", "value": "≤ 2", "unit": "h"}]}]}
